Data as given in patent publication US9629848B2, “Compounds that modulate autoimmunity and methods of using the same” (The Regents of the University of Colorado, a body corporate, priority 2011, dated 2017).
Non-standard residues stand in square brackets, D forms with d. Residues, ends and D or L forms follow the SMILES beside them. ξ: configuration not given here. ξY = NC(Cc1ccc(O)cc1)C(=O)O; Nva = CCC[CH](N)C(=O)O

system: human T cell receptor recognizing insulin B:9-23 presented by human DQ8; assay: Inhibition of human T cell receptor recognizing insulin B:9-23 presented by human DQ8; type: cell-based; conditions: DQ8 pocket 1 and pocket 9 compounds studied in detail
Description: Using a TCR sequence obtained from a T cell line generated from the peripheral blood of a diabetic individual with DQ8 molecule, a TCR was identified that is DQ8 restricted and responds to the insulin B:9-23 peptide.
Molecules predicted to occupy pockets 1 and 9 of the human DQ8 peptide binding groove were identified using in silico molecular docking program. The top scoring compounds for each pocket were screened for their ability to inhibit anti-B:9-23 T cell responses. FIGS. 9A and 9B represent the results of the T cell stimulation assay for compounds occupying pocket 1 and pocket 9 of the human DQ8 peptide binding groove, respectively.

Molecule | Concentration at which inhibition is exhibited
O=Nc1c(S(=O)(=O)O)cc2cc(S(=O)(=O)O)cc(O)c2c1O [p1:4, 4,5-dihydroxy-3-nitroso-2,7-naphthalenedisulfonic acid] | nanomolar
NC(=O)c1cc(Br)cc(C2CCCCC2)c1O [p1:12, 5-bromo-3-cyclohexyl-2-hydroxybenzamide] | nanomolar
O=C(O)COc1ccc(I)cc1I [p1:16, (2,4-diiodophenoxy)acetic acid] | nanomolar
O=C(O)COC1C=CC(=O)N(CC(=O)O)N1 (stereo not drawn) [p9:5, 3-(carboxymethoxy)-6-oxo-3,6-dihydro-1(2H)-pyridazinyl acetic acid] | nanomolar
O=S(=O)(O)CCc1nnn[nH]1 [p9:23, 2-(1H-tetraazol-5-yl)ethanesulfonic acid] | nanomolar

same assay, conditions: screen of DQ8 pocket 1 and pocket 9 compounds

Molecule | Inhibition of human T cell receptor recognition of insulin B:9-23 presented by human DQ8
5-((2,5-dichloro-4-(hydroxy(oxido)amino)phenyl)diazenyl)-2-imino-4-methyl-2,3-dihydro-1,3-thiazole [p1:21] | able to inhibit
O=Nc1c(S(=O)(=O)O)cc2cc(S(=O)(=O)O)cc(O)c2c1O [p1:4, 4,5-dihydroxy-3-nitroso-2,7-naphthalenedisulfonic acid] | able to inhibit
NC(=O)c1cc(Br)cc(C2CCCCC2)c1O [p1:12, 5-bromo-3-cyclohexyl-2-hydroxybenzamide] | able to inhibit
O=C(O)COc1ccc(I)cc1I [p1:16, (2,4-diiodophenoxy)acetic acid] | able to inhibit
COC(=O)COc1ccc(Cl)cc1C(=O)O [p1:18, 5-chloro-2-(2-methoxy-2-oxoethoxy) benzoic acid] | able to inhibit
COc1ccc2c(n1)Sc1c(N)nc(N)nc1N2 [p1:22, 7-methoxy-10H-pyrido[2,3-b]pyrimido[4,5-e][1,4]thiazine-2,4-diamine] | able to inhibit
Nc1nc(O)c2nc(S)c(C(=O)O)nc2n1 [p1:25, 2-amino-4-hydroxy-6-mercapto-7-pteridine carboxylic acid] | able to inhibit
O=P(O)(O)CCCP(=O)(O)O [p9:1, 3-phosphonopropylphosphonic acid] | able to inhibit
O=C(O)COC1C=CC(=O)N(CC(=O)O)N1 (stereo not drawn) [p9:5, 3-(carboxymethoxy)-6-oxo-3,6-dihydro-1(2H)-pyridazinyl acetic acid] | able to inhibit
O=S(=O)(O)C(O)CC(O)S(=O)(=O)O (stereo not drawn) [p9:10, 1,3-dihydroxy-1,3-propanedisulfonic acid] | able to inhibit
O=C(O)C(S)CC(S)C(=O)O (stereo not drawn) [p9:17, 3-deoxy-2,4-dithiopentaric acid] | able to inhibit
O=S(=O)(O)CCc1nnn[nH]1 [p9:23, 2-(1H-tetraazol-5-yl)ethanesulfonic acid] | able to inhibit
CC=C1C(C(=O)O)C1C(=O)O (stereo not drawn) [p9:35, 3-ethylidene-1,2-cyclopropanedicarboxylic acid] | able to inhibit

molecular target: DQ8 (Homo sapiens, UniProt P01909+P01920, A209T/A45G/C70Q/D89A/DUP78-78/E183D/E77G/F237L/G63E/H199R/I129T/K197E/L178F/L74F/L98V/Q57E/Q76R/S185I/S97I/T217I/T49S/V73L/Y58L); assay: Competitive binding assay B:9-23 to DQ8; conditions: not given

Molecule | IC50 | Competitive Binding Assay B:9-23 to DQ8 (IC50)
N=C(N)NC(=N)Nc1ccccc1Cl [p4:1] | > 100 µM | –
[H]/N=C(/N/N=C/c1ccncc1)NN(O)O [p4:4] | – | No inhibition
CC1CNC2C(=O)NC(=O)NC2N1 (stereo not drawn) [p4:5] | > 100 µM | –
[H]/N=C(\NCCN(C)C)NN(O)O [p4:7] | < 100 µM | –
[H]/N=C(/Nc1ccc(Cl)cc1)NN(O)O [p4:12] | > 100 µM | –
Clc1ccc(Cl)c(OCC2=NCCN2)c1 [p4:15] | > 100 µM | –
[H]/N=C(\NN(O)O)NS(=O)(=O)c1ccccc1 [p4:17] | > 100 µM | –
[H]/N=C(\NCCCCl)NN(O)O [p4:19] | > 100 µM | –
CCCC(N)C(=O)NC(C(=O)O)C(C)C (stereo not drawn) [p4:20] (H-[Nva]-Val-OH; configuration not given here) | > 100 µM | –
Oc1ncnc2[nH]c(C(O)c3ccccc3)nc12 (stereo not drawn) [p4:22] | > 100 µM | –
NC(=O)N/N=C/Cn1cc([N+](=O)[O-])c(=O)[nH]c1=O [p4:23] | > 100 µM | –
[H]/N=C(/NCc1ccccc1)NN(O)O [p4:28] | > 100 µM | –
CCC(N)C(O)c1ccccc1 (stereo not drawn) [p4:30] | – | No inhibition
[H]/N=C(\NCCOC)NN(O)O [p4:31] | > 100 µM | –
CC1C(c2ccccc2)OCN1C (stereo not drawn) [p4:32] | < 100 µM | –
NC(CCCC(N)C(=O)O)C(=O)O (stereo not drawn) [p4:34] | > 100 µM | –
CCCCN(C)C12CN3CN(CN(C3)C1)C2 [p4:35] | > 100 µM | –
NCc1c(Cl)c(Cl)c(Cl)c(CN)c1Cl [p6:19] | > 100 µM | –
COC(=O)C(C=C(Cl)Cl)N1CCNCC1 (stereo not drawn) [p6:23] | > 100 µM | –
NCC(=O)NC(Cc1ccc(O)cc1)C(=O)O (stereo not drawn) [p6:24] (H-Gly-[ξY]-OH) | > 100 µM | –
C=CC(OC(=O)CC)(c1ccccc1)C1CCNCC1 (stereo not drawn) [p6:32] | – | No inhibition
CC(=O)N1C(=O)C2(NCCCN2)c2ccccc21 [p6:34] | < 100 µM | –

same assay, conditions: >100 uM means some effect at 100 uM but not 50% inhibition; < means lower concentrations not used

Molecule | Competitive Binding Assay B:9-23 to DQ8 (IC50)
[H]/N=C(\N/C(N)=N/[H])Nc1ccc([N+](=O)[O-])cc1 [p4:2] | No inhibition
[H]/N=C(\NCC[N+](C)(C)C)NN([O-])O [p4:3] | No inhibition
CN(Cc1ccccc1)Cn1ccnc1 [p4:6] | No inhibition
[H]/N=C(\NCCOC(C)=O)NN(O)O [p4:8] | No inhibition
NC(=O)N/N=C/C1CNCCN1 (stereo not drawn) [p4:9] | No inhibition
c1cc[n+](CC[n+]2ccccc2)cc1 [p4:13] | No inhibition
NC(Cn1ccc(=O)c(O)c1)C(=O)O (stereo not drawn) [p4:14] | No inhibition
[H]/N=C(\N)NCCC(N)C(=O)O (stereo not drawn) [p4:18] | No inhibition
c1ccc(CCN2CCCCCCCC2)nc1 [p4:21] | No inhibition
[H]/N=C(\NCCC#N)NN(O)O [p4:24] | No inhibition
[H]/N=C(\NCCS(C)(=O)=O)NN(O)O [p4:26] | No inhibition
OC1CN(Cc2ccccc2)CC1O (stereo not drawn) [p4:33] | No inhibition
C[N+]1(C/C=C/Cl)CN2CNCN(C2)C1 (stereo not drawn) [p6:2] | No inhibition
NC1CC2NC3CCCCC3NC2CC1N (stereo not drawn) [p6:7] | No inhibition
C[N+]1(C/C=C/CCl)CN2CNCN(C2)C1 (stereo not drawn) [p6:8] | No inhibition
CN1C(=O)C(N)C(N)N(C)C1=O (stereo not drawn) [p6:16] | No inhibition
C1CCCNCCNCCNCC1 [p6:27] | No inhibition
CC1(CO)COC(=O)C(C)(C2(C)NC(C)(CO)COC2=O)N1 (stereo not drawn) [p6:28] | No inhibition
NC1(COS(=O)(=O)O)CCN1 (stereo not drawn) [p6:30] | No inhibition
O=C1CN(C2CCCCC2N2CC(=O)NC(=O)C2)CC(=O)N1 (stereo not drawn) [p6:31] | No inhibition
N=C(N)c1ccc(/C=C/c2ccc(C(=N)N)cc2)cc1 [p6:33] | No inhibition

system: CD3-stimulated T cell hybridomas; assay: CD3-stimulated T cell hybridomas (specificity control); type: cell-based; conditions: not given
Description: The small molecules p1:4, p1:12 and p1:16 were studied in additional detail.

Molecule | Response of CD3-stimulated T cell hybridomas
O=Nc1c(S(=O)(=O)O)cc2cc(S(=O)(=O)O)cc(O)c2c1O [p1:4, 4,5-dihydroxy-3-nitroso-2,7-naphthalenedisulfonic acid] | did not change response
NC(=O)c1cc(Br)cc(C2CCCCC2)c1O [p1:12, 5-bromo-3-cyclohexyl-2-hydroxybenzamide] | did not change response
O=C(O)COc1ccc(I)cc1I [p1:16, (2,4-diiodophenoxy)acetic acid] | did not change response

system: BDC 8-1.1α1 anti-B:9-23 T cell hybridoma; assay: T cell stimulation assay, B:9-23 activated TCR 8-1.1α1; type: cell-based; conditions: Mus musculus, B:9-23 activated TCR, read-out: IC50 for anti-B:9-23 TCRs 8-1.1α1

Molecule | IC50
Nc1nc(N)c2nn[nH]c2n1 | 25.5 µM
C1CN2CN1CN1CCN(C1)C2 | 48.8 µM
NC1(N)Sc2nc3ccccc3nc2S1 | 70.4 µM

same assay, conditions: Mus musculus, read-out: IC50 for anti-B:9-23 TCRs 8-1.1α1

Molecule | IC50
O=S1(=O)N2CN3CCN(C2)N1C3 | 28.4 µM

system: BDC 12-4.1 anti-B:9-23 T cell hybridoma; assay: T cell stimulation assay, B:9-23 activated TCR BDC 12-4.1; type: cell-based; conditions: Mus musculus, B:9-23 activated TCR, read-out: IC50 for anti-B:9-23 TCRs BDC 12-4.1

Molecule | IC50
Nc1nc(N)c2nn[nH]c2n1 | 24 µM
C1CN2CN1CN1CCN(C1)C2 | 2.8 µM
NC1(N)Sc2nc3ccccc3nc2S1 | 14.8 µM

same assay, conditions: Mus musculus, read-out: IC50 for anti-B:9-23 TCRs BDC 12-4.1

Molecule | IC50
O=S1(=O)N2CN3CCN(C2)N1C3 | 0.5 µM
